Assay results as given in US20250230193A1, “CYCLIC COMPOUND HAVING SELECTIVE KRAS INHIBITORY EFFECT ON HRAS AND NRAS” (CHUGAI SEIYAKU KABUSHIKI KAISHA, priority 2022, published 2025).

Experiments:
[1] = biological target: GDP-bound NRAS wild-type protein (Homo sapiens, UniProt P01111); test: Binding to NRAS by surface plasmon resonance (SPR), Single Cycle Kinetics; conditions: KD ratio, GDP-bound NRAS wild-type vs GDP-bound KRAS wild-type, SPR
[2] = biological target: GDP-bound HRAS wild-type protein (Homo sapiens, UniProt P01112); test: Binding to HRAS by surface plasmon resonance (SPR), Single Cycle Kinetics; conditions: KD ratio, GDP-bound HRAS wild-type vs GDP-bound KRAS wild-type, SPR
Sequence of GDP-bound HRAS wild-type protein (P01112 whole entry): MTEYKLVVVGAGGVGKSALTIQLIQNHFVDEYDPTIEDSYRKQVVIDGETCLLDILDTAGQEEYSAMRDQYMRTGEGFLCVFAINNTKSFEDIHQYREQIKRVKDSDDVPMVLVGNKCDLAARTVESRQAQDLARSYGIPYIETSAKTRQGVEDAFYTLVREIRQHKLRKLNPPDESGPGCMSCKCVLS

Sequence of GDP-bound NRAS wild-type protein (P01111 whole entry): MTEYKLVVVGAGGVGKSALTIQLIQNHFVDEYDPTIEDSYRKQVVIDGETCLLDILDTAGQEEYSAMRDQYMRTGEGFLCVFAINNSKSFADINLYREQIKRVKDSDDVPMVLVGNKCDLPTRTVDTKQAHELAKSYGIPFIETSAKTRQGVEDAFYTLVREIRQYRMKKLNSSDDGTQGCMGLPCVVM

| Structure (SMILES) | NRAS/KRAS (ratio of KD value with respect to NRAS to KD value with respect to KRAS) [1] | HRAS/KRAS (ratio of KD value with respect to HRAS to KD value with respect to KRAS) [2] |
| --- | --- | --- |
| CC[C@H](C)[C@@H]1NC(=O)[C@H](CC)N(C)C(=O)C[C@@H](C(=O)N(C)C)N(C)C(=O)[C@H](C2CCCC2)N(C)C(=O)C2(CCC2)NC(=O)[C@@H]2C[C@@H](OC)CN2C(=O)[C@H](CCc2cc(F)c(C(F)(F)F)c(F)c2)NC(=O)CN(C)C(=O)[C@H](Cc2ccc(C(F)(F)F)cc2)N2CC/C=C\C[C@@H](C2=O)N(C)C(=O)CN(C)C1=O [PP1130] | A (a compound having 10 or more and less than 20 is denoted as A) | B (a compound having 3 or more and less than 10 is denoted as B) |
| CC[C@H](C)[C@@H]1NC(=O)[C@H](CC)N(C)C(=O)C[C@@H](C(=O)N(C)C)N(C)C(=O)[C@H](C2CCCC2)N(C)C(=O)C2(CCC2)NC(=O)[C@@H]2C[C@@H](F)CN2C(=O)[C@H](CCc2cc(F)c(C(F)(F)F)c(F)c2)NC(=O)CN(C)C(=O)[C@H](Cc2ccc(C(F)(F)F)cc2)N2CC/C=C\C[C@@H](C2=O)N(C)C(=O)CN(C)C1=O [PP1131] | A (a compound having 10 or more and less than 20 is denoted as A) | B (a compound having 3 or more and less than 10 is denoted as B) |
| CC[C@H](C)[C@@H]1NC(=O)[C@H](CC)N(C)C(=O)C[C@@H](C(=O)N(C)C)N(C)C(=O)[C@H](C2CCCC2)N(C)C(=O)C2(CCC2)NC(=O)[C@@H]2C[C@H](F)CN2C(=O)[C@H](CCc2cc(F)c(C(F)(F)F)c(F)c2)NC(=O)CN(C)C(=O)[C@H](Cc2ccc(C(F)(F)F)cc2)N2CC/C=C\C[C@@H](C2=O)N(C)C(=O)CN(C)C1=O [PP1132] | A (a compound having 10 or more and less than 20 is denoted as A) | B (a compound having 3 or more and less than 10 is denoted as B) |
| CC[C@H](C)[C@@H]1NC(=O)[C@H](CC)N(C)C(=O)C[C@@H](C(=O)N(C)C)N(C)C(=O)[C@H](C2CCCC2)N(C)C(=O)C2(CCC2)NC(=O)[C@@H]2C[C@@H](C(F)(F)F)CN2C(=O)[C@H](CCc2cc(F)c(C(F)(F)F)c(F)c2)NC(=O)CN(C)C(=O)[C@H](Cc2ccc(C(F)(F)F)cc2)N2CC/C=C\C[C@@H](C2=O)N(C)C(=O)CN(C)C1=O [PP1133] | A (a compound having 10 or more and less than 20 is denoted as A) | A (a compound having 10 or more and less than 20 is denoted as A) |
| CC[C@H](C)[C@@H]1NC(=O)[C@H](CC)N(C)C(=O)C[C@@H](C(=O)N(C)C)N(C)C(=O)[C@H](C2CCCC2)N(C)C(=O)C2(CCC2)NC(=O)[C@@H]2C[C@H](C)CN2C(=O)[C@H](CCc2cc(F)c(C(F)(F)F)c(F)c2)NC(=O)CN(C)C(=O)[C@H](Cc2ccc(C(F)(F)F)cc2)N2CC/C=C\C[C@@H](C2=O)N(C)C(=O)CN(C)C1=O [PP1134] | A (a compound having 10 or more and less than 20 is denoted as A) | B (a compound having 3 or more and less than 10 is denoted as B) |
| CC[C@H](C)[C@@H]1NC(=O)[C@H](CC)N(C)C(=O)C[C@@H](C(=O)N(C)C)N(C)C(=O)[C@H](C2CCCC2)N(C)C(=O)C2(CCC2)NC(=O)[C@@H]2CCCN2C(=O)[C@H](CCc2cc(F)c(C(F)(F)F)c(F)c2)NC(=O)CN(C)C(=O)[C@H](Cc2ccc(C(F)(F)F)cc2)N2CC/C=C\C[C@@H](C2=O)N(C)C(=O)CN(C)C1=O [PP1135] | A (a compound having 10 or more and less than 20 is denoted as A) | A (a compound having 10 or more and less than 20 is denoted as A) |
| CC[C@H](C)[C@@H]1NC(=O)[C@H](CC)N(C)C(=O)C[C@@H](C(=O)N(C)C)N(C)C(=O)[C@H](C2CCCC2)N(C)C(=O)C2(CCC2)NC(=O)[C@@H]2CCCCN2C(=O)[C@H](CCc2cc(F)c(C(F)(F)F)c(F)c2)NC(=O)CN(C)C(=O)[C@H](Cc2ccc(C(F)(F)F)cc2)N2CC/C=C\C[C@@H](C2=O)N(C)C(=O)CN(C)C1=O [PP1136] | A (a compound having 10 or more and less than 20 is denoted as A) | A (a compound having 10 or more and less than 20 is denoted as A) |
| CC[C@H](C)[C@@H]1NC(=O)[C@H](CC)N(C)C(=O)C[C@@H](C(=O)N(C)C)N(C)C(=O)[C@H](C2CCCC2)N(C)C(=O)C2(CCC2)NC(=O)[C@@H]2CSCCN2C(=O)[C@H](CCc2cc(F)c(C(F)(F)F)c(F)c2)NC(=O)CN(C)C(=O)[C@H](Cc2ccc(C(F)(F)F)cc2)N2CC/C=C\C[C@@H](C2=O)N(C)C(=O)CN(C)C1=O [PP1137] | AA (a compound having 20 or more is denoted as AA) | A (a compound having 10 or more and less than 20 is denoted as A) |
| CC[C@H](C)[C@@H]1NC(=O)[C@H](CC)N(C)C(=O)C[C@@H](C(=O)N(C)C)N(C)C(=O)[C@H](C2CCCC2)N(C)C(=O)C2(CCC2)NC(=O)[C@@H]2COCCN2C(=O)[C@H](CCc2cc(F)c(C(F)(F)F)c(F)c2)NC(=O)CN(C)C(=O)[C@H](Cc2ccc(C(F)(F)F)cc2)N2CC/C=C\C[C@@H](C2=O)N(C)C(=O)CN(C)C1=O [PP1138] | A (a compound having 10 or more and less than 20 is denoted as A) | A (a compound having 10 or more and less than 20 is denoted as A) |
| CC[C@H](C)[C@@H]1NC(=O)[C@H](CC)N(C)C(=O)C[C@@H](C(=O)N(C)C)N(C)C(=O)[C@H](C2CCCC2)N(C)C(=O)C2(CCC2)NC(=O)[C@@H]2CCN2C(=O)[C@H](CCc2cc(F)c(C(F)(F)F)c(F)c2)NC(=O)CN(C)C(=O)[C@H](Cc2ccc(C(F)(F)F)cc2)N2CC/C=C\C[C@@H](C2=O)N(C)C(=O)CN(C)C1=O [PP1139] | A (a compound having 10 or more and less than 20 is denoted as A) | A (a compound having 10 or more and less than 20 is denoted as A) |
| CC[C@H](C)[C@@H]1NC(=O)[C@H](CC)N(C)C(=O)C[C@@H](C(=O)N(C)C)N(C)C(=O)[C@H](C2CCCC2)N(C)C(=O)C2(CCC2)NC(=O)[C@H](C)NC(=O)[C@H](CCc2cc(F)c(C(F)(F)F)c(F)c2)NC(=O)CN(C)C(=O)[C@H](Cc2ccc(C(F)(F)F)cc2)N2CC/C=C\C[C@@H](C2=O)N(C)C(=O)CN(C)C1=O [PP1140] | A (a compound having 10 or more and less than 20 is denoted as A) | A (a compound having 10 or more and less than 20 is denoted as A) |
| CCCN1CC(=O)NC2(CCC2)C(=O)N(C)[C@@H](C2CCCC2)C(=O)N(C)[C@H](C(=O)N(C)C)CC(=O)N(C)[C@@H](CC)C(=O)N[C@@H]([C@@H](C)CC)C(=O)N(C)CC(=O)N(C)[C@H]2C/C=C\CCN(C2=O)[C@@H](Cc2ccc(C(F)(F)F)cc2)C(=O)N(C)CC(=O)N[C@@H](CCc2cc(F)c(C(F)(F)F)c(F)c2)C1=O [PP1141] | AA (a compound having 20 or more is denoted as AA) | A (a compound having 10 or more and less than 20 is denoted as A) |
| CCCCN1CC(=O)NC2(CCC2)C(=O)N(C)[C@@H](C2CCCC2)C(=O)N(C)[C@H](C(=O)N(C)C)CC(=O)N(C)[C@@H](CC)C(=O)N[C@@H]([C@@H](C)CC)C(=O)N(C)CC(=O)N(C)[C@H]2C/C=C\CCN(C2=O)[C@@H](Cc2ccc(C(F)(F)F)cc2)C(=O)N(C)CC(=O)N[C@@H](CCc2cc(F)c(C(F)(F)F)c(F)c2)C1=O [PP1142] | A (a compound having 10 or more and less than 20 is denoted as A) | A (a compound having 10 or more and less than 20 is denoted as A) |
| CC[C@H](C)[C@@H]1NC(=O)[C@H](CC)N(C)C(=O)C[C@@H](C(=O)N(C)C)N(C)C(=O)[C@H](C2CCCC2)N(C)C(=O)C2(CCC2)NC(=O)CN(CC)C(=O)[C@H](CCc2cc(F)c(C(F)(F)F)c(F)c2)NC(=O)CN(C)C(=O)[C@H](Cc2ccc(C(F)(F)F)cc2)N2CC/C=C\C[C@@H](C2=O)N(C)C(=O)CN(C)C1=O [PP1143] | A (a compound having 10 or more and less than 20 is denoted as A) | A (a compound having 10 or more and less than 20 is denoted as A) |
| CC[C@H](C)[C@@H]1NC(=O)[C@H](CC)N(C)C(=O)C[C@@H](C(=O)N(C)C)N(C)C(=O)[C@H](C2CCCC2)N(C)C(=O)C2(CCC2)NC(=O)[C@H](COC)N(C)C(=O)[C@H](CCc2cc(F)c(C(F)(F)F)c(F)c2)NC(=O)CN(C)C(=O)[C@H](Cc2ccc(C(F)(F)F)cc2)N2CC/C=C\C[C@@H](C2=O)N(C)C(=O)CN(C)C1=O [PP1145] | A (a compound having 10 or more and less than 20 is denoted as A) | B (a compound having 3 or more and less than 10 is denoted as B) |
| CC[C@H](C)[C@@H]1NC(=O)[C@H](CC)N(C)C(=O)C[C@@H](C(=O)N(C)C)N(C)C(=O)[C@H](C2CCCC2)N(C)C(=O)C2(CCC2)NC(=O)[C@H](C)N(C)C(=O)[C@H](CCc2cc(F)c(C(F)(F)F)c(F)c2)NC(=O)CN(C)C(=O)[C@H](Cc2ccc(C(F)(F)F)cc2)N2CC/C=C\C[C@@H](C2=O)N(C)C(=O)CN(C)C1=O [PP1146] | A (a compound having 10 or more and less than 20 is denoted as A) | B (a compound having 3 or more and less than 10 is denoted as B) |
